Data reported in patent US20250270564A1, “EXTRACELLULAR VESICLE SECRETION BOOSTER FOR BOOSTING EXTRACELLULAR VESICLE SECRETION, AND USE THEREOF” (THEORIA SCIENCE INC., priority 2021, published 2025).

Experiments:
A549 = experiment: Amount of secreted EVs (ExoScreen / NTA method); format: cell-based, human; settings: inhibitor at 10 nmol/L or 100 nmol/L, FIG. 11
Method: (§1) For preparation of a secreted EV sample for the ExoScreen method, cells were cultured and supernatant was collected as follows. First, cells were seeded in a 96-well plate using a serum-supplemented medium (the medium according to the type of cells) at 5×10^3 cells/medium 0.1 mL/well (Day 0). After incubation for 24 hours (Day 1), 10 fmol of the miRNA was added, and the cells were transfected with the miRNA using a transfection agent (product name Dhermafect1, manufactured by Dhermacon, the same shall apply hereinafter) according to the instructions for use. […]
(§2) For preparation of a secreted EV sample for the NTA method, cells were cultured and supernatant was collected and purified as follows. […] After collecting the supernatant, the number of cells in each well was counted. […]
EV detection was performed using an exosome marker CD9 or C63 according to the ExoScreen method. EV detection was performed using an AlphaLISA reagent (Perkin Elmer) composed of AlphaScreen streptavidin-coated donor beads (6760002), AlphaLISA unconjugated acceptor beads (6062011), and an AlphaLISA universal buffer (AL001F), a 96-well half-area white plate (6005560, Perkin Elmer), and a detection device EnSpire Alpha 2300 Mutilabel plate reader (Perkin Elmer). […]

HCT116 = experiment: Amount of secreted EVs (ExoScreen / NTA method); format: cell-based, human; settings: inhibitor at 10 nmol/L or 100 nmol/L, FIG. 12
Method: as §1, with “[…],” for “10 fmol of the miRNA was added,”
as §2
EV detection was performed using an exosome marker CD9 or C63 according to the ExoScreen method. EV detection was performed using an AlphaLISA reagent (Perkin Elmer) composed of AlphaScreen streptavidin-coated donor beads (6760002), AlphaLISA unconjugated acceptor beads (6062011), and an AlphaLISA universal buffer (AL001F), a 96-well half-area white plate (6005560, Perkin Elmer), and a detection device EnSpire Alpha 2300 Mutilabel plate reader (Perkin Elmer). […] Next, luminescence in the wells of the plate was measured using the detection device with the excitation wavelength set to 680 nm and the emission detection wavelength set to 615 nm. […]

With CC(C)(Sc1cc(C(C)(C)C)c(O)c(C(C)(C)C)c1)Sc1cc(C(C)(C)C)c(O)c(C(C)(C)C)c1 [probucol] the “EV secretion compared with NC” value (A549) was “particularly effectively boosted EV secretion” and the “EV secretion compared with NC” value (HCT116) was “particularly effectively boosted EV secretion”.
